Data reported in ChEMBL document CHEMBL1201862, “PubChem BioAssay data set” (2004).
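Interpolation was linear, between the two tested concentrations surrounding the appropriate level; five concentrations were tested over 48 hours in 96-well plates. Abbreviation: GI50, concentration required for 50% inhibition of growth.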 Active and inactive are the calls of the source. Cut-off read from the data, not from the text of the source: active = GI50 up to about 1.1 µM and inactive = higher.

Assays:
Assay in all cases: NCI-60 cell line screen, 48 h
MOLT-4 = system: MOLT-4
HCT-116 = system: HCT-116
EKVX = system: EKVX
DMS-114 = system: DMS-114
UACC-62 = system: UACC-62
SF-539 = system: SF-539
HT-29 = system: HT-29
SK-MEL-5 = system: SK-MEL-5
SF-268 = system: SF-268
SR = system: SR
786-0 = system: 786-0
HCT-15 = system: HCT-15
SF-295 = system: SF-295
KM12 = system: KM12
OVCAR-4 = system: OVCAR-4
TK-10 = system: TK-10
DU-145 = system: DU-145
SK-OV-3 = system: SK-OV-3
NCI/ADR-RES = system: NCI/ADR-RES
MDA-MB-231 = system: MDA-MB-231

Row | SMILES | GI50 (MOLT-4) | GI50 (HCT-116) | GI50 (EKVX) | GI50 (DMS-114) | GI50 (UACC-62) | GI50 (SF-539) | GI50 (HT-29) | GI50 (SK-MEL-5) | GI50 (SF-268) | GI50 (SR) | GI50 (786-0) | GI50 (HCT-15) [µM] | GI50 (SF-295) | GI50 (KM12) | GI50 (OVCAR-4) | GI50 (TK-10) | GI50 (DU-145) | GI50 (SK-OV-3) | GI50 (NCI/ADR-RES) | GI50 (MDA-MB-231)
1 | CSCSCC(CO)NC(=O)/C=C/c1c(C)nc(O)nc1O (configuration not stated) | 96.6 µM (inactive) | > 100 µM (inactive) | 57.1 µM (inactive) | 64.9 µM (inactive) | > 100 µM (inactive) | > 100 µM (inactive) | > 100 µM (inactive) | > 100 µM (inactive) | 30.8 µM (inactive) | 56.4 µM (inactive) | > 100 µM (inactive) | > 100 | > 100 µM (inactive) | > 100 µM (inactive) | 37 µM (inactive) | > 100 µM (inactive) |  |  |  | 
2 | O=C1c2cccnc2-c2nccc3c2c1nc1cc(Br)ccc13 | 0.0955 µM (active) | 0.025 µM (active) | 1.15 µM (inactive) |  | 0.178 µM (active) | 0.279 µM (active) | 0.989 µM (active) | 0.132 µM (active) | 0.134 µM (active) | 0.0221 µM (active) | 0.0713 µM (active) | 0.0721 | 0.227 µM (active) | 0.147 µM (active) | 0.148 µM (active) | 0.979 µM (active) | 0.121 µM (active) | 0.239 µM (active) | 0.0375 µM (active) | 0.103 µM (active)
3 | COc1ccc(C(=O)C(c2ccc(OC)cc2)C2(O)C(=O)Nc3c(Cl)cc(Cl)cc32)cc1 (configuration not stated) | 9.35 µM (inactive) |  | 18.7 µM (inactive) | 18.4 µM (inactive) |  |  | 19.4 µM (inactive) | 18.5 µM (inactive) | 33.8 µM (inactive) |  | 14.3 µM (inactive) | 21.5 | 19.3 µM (inactive) | 17.8 µM (inactive) | 6.34 µM (inactive) | 22.5 µM (inactive) |  | 50.7 µM (inactive) |  | 
4 | CC1=NN=C(NCCN(C)C)C/C1=C/c1ccccc1Cl |  | > 100 µM (inactive) | > 100 µM (inactive) | > 100 µM (inactive) | > 100 µM (inactive) | > 100 µM (inactive) | 45.1 µM (inactive) | 48.6 µM (inactive) | > 100 µM (inactive) |  | > 100 µM (inactive) | > 100 | > 100 µM (inactive) | > 100 µM (inactive) | > 100 µM (inactive) | > 100 µM (inactive) |  | > 100 µM (inactive) |  | 
5 | CCOC(=O)c1ncn2c1[nH]c(=O)c1ccccc12 | > 100 µM (inactive) | > 100 µM (inactive) | > 100 µM (inactive) | > 100 µM (inactive) | > 100 µM (inactive) | > 100 µM (inactive) | > 100 µM (inactive) | > 100 µM (inactive) | > 100 µM (inactive) | > 100 µM (inactive) | > 100 µM (inactive) | > 100 | > 100 µM (inactive) | > 100 µM (inactive) | > 100 µM (inactive) | > 100 µM (inactive) |  |  |  | 
6 | OC(c1ccccn1)C1CNc2ccccc21 (configuration not stated) | > 100 µM (inactive) | > 100 µM (inactive) | > 100 µM (inactive) | > 100 µM (inactive) | > 100 µM (inactive) | > 100 µM (inactive) | > 100 µM (inactive) | > 100 µM (inactive) | > 100 µM (inactive) |  | > 100 µM (inactive) | > 100 | > 100 µM (inactive) | > 100 µM (inactive) | > 100 µM (inactive) | > 100 µM (inactive) |  | > 100 µM (inactive) |  | 
7 | C=C(CCC(C(=O)O)C1CCC2(C)C3=C(CCC12C)C1(C)CCC(O)C(C)(C)C1CC3)C(C)C (configuration not stated) | 26.9 µM (inactive) | 28.6 µM (inactive) | 27.5 µM (inactive) |  | 34.9 µM (inactive) | > 100 µM (inactive) | 32.7 µM (inactive) | 33.7 µM (inactive) | 34.4 µM (inactive) | 12.1 µM (inactive) | 45.1 µM (inactive) | 21.8 | 38.5 µM (inactive) | 6.38 µM (inactive) | 43.1 µM (inactive) | > 100 µM (inactive) | > 100 µM (inactive) | > 100 µM (inactive) | 19.3 µM (inactive) | 71 µM (inactive)
8 | CN1CCc2cc3c(c4c2C1C(O)c1ccccc1-4)OCO3 (configuration not stated) | 2.98 µM (inactive) | 3.68 µM (inactive) | 7.83 µM (inactive) |  | 8.22 µM (inactive) | 4.72 µM (inactive) | 3.5 µM (inactive) | 7.98 µM (inactive) | 6.3 µM (inactive) | 4.6 µM (inactive) | 6.21 µM (inactive) | 3.59 | 5.69 µM (inactive) | 7.52 µM (inactive) | 6.04 µM (inactive) | 14.2 µM (inactive) | 9.73 µM (inactive) | 21.4 µM (inactive) | 6.47 µM (inactive) | 6.05 µM (inactive)
9 | CC(C(=O)n1c2ccccc2c2ccccc21)N(c1ccccc1)c1ccccc1 (configuration not stated) | 11 µM (inactive) | 18.7 µM (inactive) | 19.4 µM (inactive) | 17.4 µM (inactive) | 17.6 µM (inactive) | 19.2 µM (inactive) | 19.5 µM (inactive) | 20.1 µM (inactive) | 19.3 µM (inactive) | 8.93 µM (inactive) | 16.6 µM (inactive) | 17 | 19.4 µM (inactive) |  |  | 20 µM (inactive) |  | 18.7 µM (inactive) |  | 
10 | CC1=C(C(=O)Nc2ccccc2)C(c2ccc([N+](=O)[O-])cc2)C(C(=O)Nc2ccccc2)=C(C)N1 | 7.05 µM (inactive) | 18.5 µM (inactive) | 21.5 µM (inactive) | 20.7 µM (inactive) | 12.2 µM (inactive) | 20.7 µM (inactive) | 18.2 µM (inactive) | 24.1 µM (inactive) | 22.6 µM (inactive) | 18.4 µM (inactive) | 19.8 µM (inactive) | 17.6 | 22.4 µM (inactive) | 15.8 µM (inactive) |  | 28.7 µM (inactive) |  |  |  | 
11 | CCN(CC)CC(C(=O)Nc1c(C)cccc1C)/C(C)=N/NC(N)=S (configuration not stated) | > 100 µM (inactive) | > 100 µM (inactive) | > 100 µM (inactive) | > 100 µM (inactive) | > 100 µM (inactive) | > 100 µM (inactive) | > 100 µM (inactive) | > 100 µM (inactive) | > 100 µM (inactive) |  | > 100 µM (inactive) |  | > 100 µM (inactive) | > 100 µM (inactive) |  | > 100 µM (inactive) |  | > 100 µM (inactive) |  | 
12 | Nc1nc(N)c(N=O)c(Nc2ccc(Br)cc2)n1 |  | 13.3 µM (inactive) | 40.8 µM (inactive) | 21.8 µM (inactive) | 5.5 µM (inactive) | 16.9 µM (inactive) | 15.8 µM (inactive) |  | 12.9 µM (inactive) | > 100 µM (inactive) | 28.7 µM (inactive) | 15.3 | 29 µM (inactive) | 33.8 µM (inactive) | 48 µM (inactive) | 29.1 µM (inactive) |  | 32.4 µM (inactive) |  | 
13 | COC(=O)C1Cc2ccc3c(c2C1=O)CCCC3 (configuration not stated) | 21.3 µM (inactive) | 39.7 µM (inactive) | 70.5 µM (inactive) |  | 81.1 µM (inactive) | > 100 µM (inactive) | > 100 µM (inactive) | 68.2 µM (inactive) | > 100 µM (inactive) | 26.7 µM (inactive) | > 100 µM (inactive) | 69.5 | 71.4 µM (inactive) | > 100 µM (inactive) | > 100 µM (inactive) | > 100 µM (inactive) | > 100 µM (inactive) | > 100 µM (inactive) | > 100 µM (inactive) | 83 µM (inactive)
14 | CCOC1NC(=O)Oc2cc3ccccc3cc21 (configuration not stated) | 34.8 µM (inactive) | 35 µM (inactive) | > 100 µM (inactive) |  | 42.6 µM (inactive) | 68.1 µM (inactive) | > 100 µM (inactive) | > 100 µM (inactive) | > 100 µM (inactive) | 48.5 µM (inactive) | > 100 µM (inactive) | 34.4 | > 100 µM (inactive) | > 100 µM (inactive) | > 100 µM (inactive) | > 100 µM (inactive) | > 100 µM (inactive) | > 100 µM (inactive) | 99.5 µM (inactive) | > 100 µM (inactive)
15 | COC(=O)C(CC(C)=O)CS(=O)(=O)CC(=O)C(=O)Nc1cccc([N+](=O)[O-])c1 (configuration not stated) |  | > 100 µM (inactive) | > 100 µM (inactive) | > 100 µM (inactive) | > 100 µM (inactive) | > 100 µM (inactive) |  | > 100 µM (inactive) | > 100 µM (inactive) |  | > 100 µM (inactive) | > 100 |  | > 100 µM (inactive) | > 100 µM (inactive) | > 100 µM (inactive) |  | > 100 µM (inactive) |  | 
16 | O=C1CSC(c2cccc(Oc3ccccc3)c2)N1c1cc(Cl)ccc1Cl (configuration not stated) | 22.6 µM (inactive) | 17.3 µM (inactive) | 26.1 µM (inactive) |  | 16 µM (inactive) | 19.1 µM (inactive) | 22.4 µM (inactive) | 16.5 µM (inactive) | 19.7 µM (inactive) | 14.9 µM (inactive) | 18.2 µM (inactive) | 23.8 | 23 µM (inactive) | 26.4 µM (inactive) | 17.2 µM (inactive) | 25.5 µM (inactive) | 35.2 µM (inactive) | 39.8 µM (inactive) | 29.2 µM (inactive) | 20.7 µM (inactive)
17 | O=C1OC(=O)C2C3CCC(O3)C12 (configuration not stated) | > 100 µM (inactive) | > 100 µM (inactive) | > 100 µM (inactive) | > 100 µM (inactive) | > 100 µM (inactive) | > 100 µM (inactive) | > 100 µM (inactive) | > 100 µM (inactive) | > 100 µM (inactive) | > 100 µM (inactive) | > 100 µM (inactive) |  | > 100 µM (inactive) | > 100 µM (inactive) |  | > 100 µM (inactive) |  | > 100 µM (inactive) |  | 
